Reference: the CheMixHub viscosity set

Assay: xn = mol fraction of the nth substance listed

CCCOC(C)=O + COCCOCCOCCOCCOC
viscosity [mPa·s], 101 kPa
Conditions | 298.15 K | 308.15 K | 318.15 K
x1 = 0.01 | 3.323 | 2.605 | 2.085
x2 = 0.0066 | 0.564 | 0.496 | 0.445
x2 = 0.0294 | 0.602 | 0.529 | 0.471
x2 = 0.0477 | 0.633 | 0.554 | 0.494
x2 = 0.0676 | 0.67 | 0.585 | 0.519
x2 = 0.103 | 0.746 | 0.64 | 0.562
x2 = 0.1448 | 0.825 | 0.716 | 0.619
x2 = 0.1941 | 0.93 | 0.794 | 0.689
x2 = 0.2422 | 1.049 | 0.881 | 0.757
x2 = 0.2932 | 1.161 | 0.978 | 0.834
x2 = 0.3625 | 1.343 | 1.12 | 0.943
x2 = 0.4204 | 1.504 | 1.234 | 1.038
x2 = 0.4781 | 1.663 | 1.364 | 1.139
x2 = 0.5293 | 1.827 | 1.472 | 1.22
x2 = 0.5986 | 2.014 | 1.633 | 1.345
x2 = 0.6621 | 2.209 | 1.784 | 1.458
x2 = 0.7157 | 2.378 | 1.924 | 1.559
x2 = 0.7802 | 2.61 | 2.074 | 1.679
x2 = 0.8069 | 2.687 | 2.142 | 1.737
x2 = 0.8324 | 2.77 | 2.203 | 1.78

ClC(Cl)(Cl)Cl + COc1ccccc1
viscosity [mPa·s], 101 kPa
Conditions | x2 = 0.105 | x2 = 0.2013 | x2 = 0.3026 | x2 = 0.3956 | x2 = 0.5023 | x2 = 0.5968 | x2 = 0.699 | x2 = 0.797 | x2 = 0.8998
298.15 K | 0.9408 | 0.9425 | 0.9493 | 0.9547 | 0.9644 | 0.9745 | 0.9834 | 0.9896 | 0.9961
303.15 K | 0.8895 | 0.8842 | 0.8852 | 0.8927 | 0.9013 | 0.9054 | 0.9147 | 0.919 | 0.926
308.15 K | 0.8268 | 0.8263 | 0.8279 | 0.8326 | 0.8397 | 0.8446 | 0.8502 | 0.8547 | 0.858
313.15 K | 0.7762 | 0.7751 | 0.7851 | 0.7777 | 0.7837 | 0.7864 | 0.7919 | 0.7946 | 0.7981

CCOC(=O)c1ccccc1O + CS(C)=O
303.15 K, 101 kPa
Conditions | viscosity [mPa·s]
x1 = 0.0499 | 1.888
x1 = 0.1687 | 2.196
x1 = 0.2404 | 2.294
x1 = 0.3226 | 2.533
x1 = 0.4179 | 2.57
x1 = 0.5265 | 2.723
x1 = 0.6564 | 2.843

ClC(Cl)(Cl)Cl + CS(C)=O
Conditions | viscosity [mPa·s]
298 K, 101.3 kPa, x1 = 0.1093 | 2.001
298 K, 101.3 kPa, x1 = 0.226 | 1.852
298 K, 101.3 kPa, x1 = 0.4246 | 1.654
298 K, 101.3 kPa, x1 = 0.5746 | 1.5
298 K, 101.3 kPa, x1 = 0.6402 | 1.399
298 K, 101.3 kPa, x1 = 0.8661 | 1.067
303.15 K, 101.33 kPa, x1 = 0.2642 | 1.553
303.15 K, 101.33 kPa, x1 = 0.3011 | 1.526
303.15 K, 101.33 kPa, x1 = 0.3924 | 1.483
303.15 K, 101.33 kPa, x1 = 0.4763 | 1.391
303.15 K, 101.33 kPa, x1 = 0.5118 | 1.358
303.15 K, 101.33 kPa, x1 = 0.5664 | 1.304
318 K, 101.3 kPa, x1 = 0.114 | 1.312
318 K, 101.3 kPa, x1 = 0.2398 | 1.25
318 K, 101.3 kPa, x1 = 0.424 | 1.139
318 K, 101.3 kPa, x1 = 0.5763 | 1.035
318 K, 101.3 kPa, x1 = 0.8096 | 0.8725

ClC(Cl)(Cl)Cl + C[N+](=O)[O-]
Conditions | viscosity [mPa·s]
298 K, 101.3 kPa, x1 = 0.0959 | 0.636
298 K, 101.3 kPa, x1 = 0.1961 | 0.655
298 K, 101.3 kPa, x1 = 0.3609 | 0.702
298 K, 101.3 kPa, x1 = 0.5088 | 0.751
298 K, 101.3 kPa, x1 = 0.7487 | 0.805
298.15 K, 101 kPa, x2 = 0.1023 | 0.884
298.15 K, 101 kPa, x2 = 0.1662 | 0.8265
298.15 K, 101 kPa, x2 = 0.2011 | 0.8405
298.15 K, 101 kPa, x2 = 0.2958 | 0.8074
298.15 K, 101 kPa, x2 = 0.3102 | 0.7692
298.15 K, 101 kPa, x2 = 0.3946 | 0.7776
298.15 K, 101 kPa, x2 = 0.4351 | 0.7285
298.15 K, 101 kPa, x2 = 0.4978 | 0.7481
298.15 K, 101 kPa, x2 = 0.5452 | 0.6969
298.15 K, 101 kPa, x2 = 0.6013 | 0.7175
298.15 K, 101 kPa, x2 = 0.6424 | 0.6735
298.15 K, 101 kPa, x2 = 0.701 | 0.6857
298.15 K, 101 kPa, x2 = 0.7297 | 0.6556
298.15 K, 101 kPa, x2 = 0.799 | 0.6627
298.15 K, 101 kPa, x2 = 0.8077 | 0.6427
298.15 K, 101 kPa, x2 = 0.878 | 0.6339
298.15 K, 101 kPa, x2 = 0.9009 | 0.6481
298.15 K, 101 kPa, x2 = 0.9419 | 0.6295
303.15 K, 101 kPa, x2 = 0.1 | 0.7718
303.15 K, 101 kPa, x2 = 0.1023 | 0.8319
303.15 K, 101 kPa, x2 = 0.2 | 0.7427
303.15 K, 101 kPa, x2 = 0.2011 | 0.7922
303.15 K, 101 kPa, x2 = 0.2958 | 0.7599
303.15 K, 101 kPa, x2 = 0.3 | 0.7058
303.15 K, 101 kPa, x2 = 0.3946 | 0.735
303.15 K, 101 kPa, x2 = 0.4 | 0.6831
303.15 K, 101 kPa, x2 = 0.4978 | 0.7052
303.15 K, 101 kPa, x2 = 0.5 | 0.6569
303.15 K, 101 kPa, x2 = 0.6 | 0.6415
303.15 K, 101 kPa, x2 = 0.6013 | 0.6783
303.15 K, 101 kPa, x2 = 0.7 | 0.624
303.15 K, 101 kPa, x2 = 0.701 | 0.6511
303.15 K, 101 kPa, x2 = 0.799 | 0.6308
303.15 K, 101 kPa, x2 = 0.8 | 0.6126
303.15 K, 101 kPa, x2 = 0.9 | 0.6123
303.15 K, 101 kPa, x2 = 0.9009 | 0.6177
308.15 K, 101 kPa, x2 = 0.1 | 0.7423
308.15 K, 101 kPa, x2 = 0.1023 | 0.7884
308.15 K, 101 kPa, x2 = 0.2 | 0.6974
308.15 K, 101 kPa, x2 = 0.2011 | 0.7475
308.15 K, 101 kPa, x2 = 0.2958 | 0.7146
308.15 K, 101 kPa, x2 = 0.3 | 0.668
308.15 K, 101 kPa, x2 = 0.3946 | 0.6899
308.15 K, 101 kPa, x2 = 0.4 | 0.6479
308.15 K, 101 kPa, x2 = 0.4978 | 0.6672
308.15 K, 101 kPa, x2 = 0.5 | 0.626
308.15 K, 101 kPa, x2 = 0.6 | 0.6063
308.15 K, 101 kPa, x2 = 0.6013 | 0.6432
308.15 K, 101 kPa, x2 = 0.7 | 0.5927
308.15 K, 101 kPa, x2 = 0.701 | 0.6169
308.15 K, 101 kPa, x2 = 0.799 | 0.5981
308.15 K, 101 kPa, x2 = 0.8 | 0.5834
308.15 K, 101 kPa, x2 = 0.9 | 0.5735
308.15 K, 101 kPa, x2 = 0.9009 | 0.5901
313.15 K, 101 kPa, x2 = 0.1023 | 0.7324
313.15 K, 101 kPa, x2 = 0.2011 | 0.6952
313.15 K, 101 kPa, x2 = 0.2958 | 0.674
313.15 K, 101 kPa, x2 = 0.3946 | 0.648
313.15 K, 101 kPa, x2 = 0.4978 | 0.6232
313.15 K, 101 kPa, x2 = 0.6013 | 0.6053
313.15 K, 101 kPa, x2 = 0.701 | 0.5841
313.15 K, 101 kPa, x2 = 0.799 | 0.5675
313.15 K, 101 kPa, x2 = 0.9009 | 0.5621
318 K, 101.3 kPa, x1 = 0.0897 | 0.5256
318 K, 101.3 kPa, x1 = 0.1941 | 0.5442
318 K, 101.3 kPa, x1 = 0.3589 | 0.5822
318 K, 101.3 kPa, x1 = 0.5073 | 0.6189
318 K, 101.3 kPa, x1 = 0.7644 | 0.6719
318.15 K, 101 kPa, x2 = 0.1 | 0.6487
318.15 K, 101 kPa, x2 = 0.2 | 0.6201
318.15 K, 101 kPa, x2 = 0.3 | 0.5962
318.15 K, 101 kPa, x2 = 0.4 | 0.5782
318.15 K, 101 kPa, x2 = 0.5 | 0.5609
318.15 K, 101 kPa, x2 = 0.6 | 0.546
318.15 K, 101 kPa, x2 = 0.7 | 0.5328
318.15 K, 101 kPa, x2 = 0.8 | 0.5246
318.15 K, 101 kPa, x2 = 0.9 | 0.5207
